Laboratory results as given in ChEMBL document CHEMBL3044715, “Synthesis, spectral studies and biological evaluation of a novel series of 2-substituted-5,6-diarylsubstituted imidazo(2,1-b)-1,3,4-thiadiazole derivatives as possible anti-tubercular agents” (Med Chem Res, 2012).
Values after ≈ are worked out from the molar mass of the structure shown. Active and inactive are the calls of the source. The calls are words filed in the database; no cut-off is given here.

Experiments:
[1] = tested on: Mycobacterium tuberculosis; assay: Antimycobacterial activity against Mycobacterium tuberculosis H37Rv ATCC 27294 after 5 days by Alamar blue assay; format: functional
[2] = tested on: Vero; assay: Cytotoxicity against Chlorocebus aethiops (African green monkey) Vero cells after 72 hr by MTT assay; format: cell-based; conditions: Chlorocebus sabaeus

COc1ccc(-c2nn3c(-c4ccccc4)c(-c4ccc(C)cc4)nc3s2)cc1
MIC [1]: inactive

Cc1ccc(-c2nc3sc(S(N)(=O)=O)nn3c2-c2ccccc2)cc1
IC50 [2]: 168 µM
MIC ([1]; H37Rv ATCC 27294, 120 h): 10 µg/mL (≈ 27 µM)

COc1c(N2CCNC(C)C2)c(F)cc2c(=O)c(C(=O)O)cn(C3CC3)c12 (stereo not given) [GATIFLOXACIN]
IC50 [2]: > 550 µM
MIC ([1]; H37Rv ATCC 27294, 120 h): 1 µg/mL (≈ 2.66 µM)

COc1ccc(-c2c(-c3ccccc3)nc3sc(S(N)(=O)=O)nn23)cc1
IC50 [2]: 204 µM
MIC ([1]; H37Rv ATCC 27294, 120 h): 5 µg/mL (≈ 12.9 µM)

CSc1ccc(-c2nc3sc(C(F)(F)F)nn3c2-c2ccccc2)cc1
IC50 [2]: 140 µM
MIC ([1]; H37Rv ATCC 27294, 120 h): 10 µg/mL (≈ 25.5 µM)

NNC(=O)c1ccncc1 [ISONIAZID]
IC50 [2]: > 450 µM
MIC ([1]; H37Rv ATCC 27294, 120 h): 0.25 µg/mL (≈ 1.82 µM)

CSc1ccc(-c2nc3sc(S(N)(=O)=O)nn3c2-c2ccccc2)cc1
IC50 [2]: 192 µM
MIC ([1]; H37Rv ATCC 27294, 120 h): 2.5 µg/mL (≈ 6.21 µM)

COc1ccc(-c2nc3sc(-c4ccc(F)cc4)nn3c2-c2ccc(OC)cc2)cc1
IC50 [2]: 163 µM
MIC ([1]; H37Rv ATCC 27294, 120 h): 5 µg/mL (≈ 11.6 µM)

COc1ccc(-c2c(-c3ccc(SC)cc3)nc3sc(-c4ccc(F)cc4)nn23)cc1
IC50 [2]: 116 µM
MIC ([1]; H37Rv ATCC 27294, 120 h): 10 µg/mL (≈ 22.3 µM)

CSc1ccc(-c2nc3sc(-c4ccc(F)cc4)nn3c2-c2ccccc2)cc1
MIC [1]: inactive

COc1ccc(-c2nc3sc(C(F)(F)F)nn3c2-c2ccc(OC)cc2)cc1
IC50 [2]: 147 µM
MIC ([1]; H37Rv ATCC 27294, 120 h): 1.25 µg/mL (≈ 3.08 µM)

COc1ccc(-c2nn3c(-c4ccc(OC)cc4)c(-c4ccc(SC)cc4)nc3s2)cc1
IC50 [2]: 120 µM
MIC ([1]; H37Rv ATCC 27294, 120 h): 10 µg/mL (≈ 21.8 µM)

Cc1ccc(-c2nc3sc(C(F)(F)F)nn3c2-c2ccccc2)cc1
MIC [1]: inactive

COc1ccc(-c2nn3c(-c4ccc(OC)cc4)c(-c4ccc(OC)cc4)nc3s2)cc1
IC50 [2]: 162 µM
MIC ([1]; H37Rv ATCC 27294, 120 h): 5 µg/mL (≈ 11.3 µM)

COc1ccc(-c2c(-c3ccccc3)nc3sc(C(F)(F)F)nn23)cc1
MIC [1]: inactive

COc1ccc(-c2nc3sc(S(N)(=O)=O)nn3c2-c2ccc(OC)cc2)cc1
IC50 [2]: 247 µM
MIC ([1]; H37Rv ATCC 27294, 120 h): 1.25 µg/mL (≈ 3 µM)

COc1ccc(-c2nn3c(-c4ccccc4)c(-c4ccc(SC)cc4)nc3s2)cc1
IC50 [2]: 135 µM
MIC ([1]; H37Rv ATCC 27294, 120 h): 10 µg/mL (≈ 23.3 µM)

COc1ccc(-c2c(-c3ccc(SC)cc3)nc3sc(C(F)(F)F)nn23)cc1
IC50 [2]: 123 µM
MIC ([1]; H37Rv ATCC 27294, 120 h): 5 µg/mL (≈ 11.9 µM)

COc1ccc(-c2c(-c3ccc(SC)cc3)nc3sc(S(N)(=O)=O)nn23)cc1
IC50 [2]: 213 µM
MIC ([1]; H37Rv ATCC 27294, 120 h): 2.5 µg/mL (≈ 5.78 µM)

COc1ccc(-c2c(-c3ccccc3)nc3sc(-c4ccc(F)cc4)nn23)cc1
MIC [1]: inactive
